Experimental data reported in paper PMC3125149, “SCYX-7158, an Orally-Active Benzoxaborole for the Treatment of Stage 2 Human African Trypanosomiasis” (PLoS Neglected Tropical Diseases, 2011).
Like-named read-outs stand apart in the source and are kept apart here.

How the values were obtained:
T. b. brucei TREU 667 = assay: Efficacy in mouse model for chronic (CNS, stage 2) HAT; type: in vivo
Method: For evaluation against late-stage CNS infections, a chronic disease inducing strain (TREU 667) of T. b. brucei was used.[19] Mice were divided into groups of ten and each animal was infected i.p. with 1×10^4 parasites (200 μL). […] Louis, MO) administered by i.p. injection on day 4 after infection. […] Animals were checked for parasitemia once per week and were immediately removed from the cages and euthanized upon recrudescence. Animals were considered to be cured of a CNS infection if they were […] for at least 180 days after the end of the treatment period.

>100 biochemical targets = assay: Array of in vitro receptor binding and enzyme inhibition assays; settings: test concentration 10 µM
CYP2C9 = target: T1, CYP2C9 (Homo sapiens, UniProt P11712); assay: P450-Glo cytochrome P450 inhibition; type: biochemical; settings: human recombinant CYP2C9
T1 construct: purchased Promega Inc., Madison, WI
Method: (§1) The potential for compound to exert drug-drug interactions that are mediated through inhibition of cytochrome P450 activities was assessed using P450-Glo assay kits (Promega Inc., Madison, WI). Assays for human cytochrome P450 isoforms 3A4, 1A2, 2C9, 2C19, and 2D6 were performed in triplicate according to the manufacturer's instructions over the concentration range 1–100 µM (n = 6 levels). Briefly, SCYX-7158 was added to membrane preparations containing human recombinant CYP450 enzymes together with luminogenic substrates specific to each isoform. Specific CYP450 inhibitors were included as positive controls (ketoconazole, CYP3A4; alpha-napthoflavone, 1A2; sulfaphenazole, CYP2C9; troglitazone, 2C19, and quinidine, CYP2D6). Reactions were initiated by addition of NADPH-regenerating solution and were allowed to incubate for an additional 15–30 min (isoform dependent). Luciferin detection reagent, containing the luciferin-labeled probe substrate, was then added. Luminescence was recorded on an EnVision Multilabel Plate Reader. Calculation of IC50 concentrations for each enzyme was determined using GraphPad Prism (V5.01).

CYP2C19 = target: T2, CYP2C19 (Homo sapiens, UniProt P33261); assay: P450-Glo cytochrome P450 inhibition; type: biochemical; settings: human recombinant CYP2C19
T2 construct: purchased Promega Inc., Madison, WI
Method: as §1

CYP2D6 = target: T3, CYP2D6 (Homo sapiens, UniProt P10635); assay: P450-Glo cytochrome P450 inhibition; type: biochemical; settings: human recombinant CYP2D6
T3 construct: purchased Promega Inc., Madison, WI
T3 sequence (P10635 whole entry): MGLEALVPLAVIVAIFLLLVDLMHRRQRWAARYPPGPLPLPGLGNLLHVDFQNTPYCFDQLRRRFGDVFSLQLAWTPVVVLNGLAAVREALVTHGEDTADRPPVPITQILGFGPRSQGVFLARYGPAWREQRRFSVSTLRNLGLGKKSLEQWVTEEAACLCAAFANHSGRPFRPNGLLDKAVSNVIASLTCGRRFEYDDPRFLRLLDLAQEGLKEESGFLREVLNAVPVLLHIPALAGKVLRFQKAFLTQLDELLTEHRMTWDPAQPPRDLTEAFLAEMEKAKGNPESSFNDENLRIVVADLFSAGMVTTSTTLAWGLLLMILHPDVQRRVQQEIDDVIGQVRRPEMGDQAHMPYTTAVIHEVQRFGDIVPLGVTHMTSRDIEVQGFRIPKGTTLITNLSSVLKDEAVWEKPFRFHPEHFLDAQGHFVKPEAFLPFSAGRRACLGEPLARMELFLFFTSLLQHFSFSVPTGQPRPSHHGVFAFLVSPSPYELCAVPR
Method: as §1

CYP1A2 = target: T4, CYP1A2 (Homo sapiens, UniProt P05177); assay: P450-Glo cytochrome P450 inhibition; type: biochemical; settings: human recombinant CYP1A2
T4 construct: purchased Promega Inc., Madison, WI
T4 sequence (P05177 whole entry): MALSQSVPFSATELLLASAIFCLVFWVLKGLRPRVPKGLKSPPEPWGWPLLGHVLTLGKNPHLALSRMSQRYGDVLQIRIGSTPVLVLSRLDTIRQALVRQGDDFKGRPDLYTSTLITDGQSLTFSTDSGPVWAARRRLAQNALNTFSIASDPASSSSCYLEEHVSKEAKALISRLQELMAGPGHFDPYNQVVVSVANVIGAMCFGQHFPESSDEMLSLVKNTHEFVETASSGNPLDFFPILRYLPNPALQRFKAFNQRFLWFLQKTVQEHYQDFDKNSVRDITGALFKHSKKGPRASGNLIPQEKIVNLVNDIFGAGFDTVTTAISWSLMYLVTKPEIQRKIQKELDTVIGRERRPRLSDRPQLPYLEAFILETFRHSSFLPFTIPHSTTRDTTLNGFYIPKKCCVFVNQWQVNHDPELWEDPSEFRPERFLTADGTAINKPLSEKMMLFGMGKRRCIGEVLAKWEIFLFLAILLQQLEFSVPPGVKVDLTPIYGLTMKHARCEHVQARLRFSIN
Method: as §1

CYP3A4 = target: T5, CYP3A4 (Homo sapiens, UniProt P08684); assay: P450-Glo cytochrome P450 inhibition; type: biochemical; settings: human recombinant CYP3A4
T5 construct: purchased Promega Inc., Madison, WI
Method: as §1

[1] = target: T6, hERG channel expressed in HEK-293 cells (Homo sapiens, UniProt Q12809); assay: hERG whole-cell patch clamp; type: cell-based
T6 construct: expressed in transfected cells; host or cells: HEK-293
T6 sequence (Q12809 whole entry): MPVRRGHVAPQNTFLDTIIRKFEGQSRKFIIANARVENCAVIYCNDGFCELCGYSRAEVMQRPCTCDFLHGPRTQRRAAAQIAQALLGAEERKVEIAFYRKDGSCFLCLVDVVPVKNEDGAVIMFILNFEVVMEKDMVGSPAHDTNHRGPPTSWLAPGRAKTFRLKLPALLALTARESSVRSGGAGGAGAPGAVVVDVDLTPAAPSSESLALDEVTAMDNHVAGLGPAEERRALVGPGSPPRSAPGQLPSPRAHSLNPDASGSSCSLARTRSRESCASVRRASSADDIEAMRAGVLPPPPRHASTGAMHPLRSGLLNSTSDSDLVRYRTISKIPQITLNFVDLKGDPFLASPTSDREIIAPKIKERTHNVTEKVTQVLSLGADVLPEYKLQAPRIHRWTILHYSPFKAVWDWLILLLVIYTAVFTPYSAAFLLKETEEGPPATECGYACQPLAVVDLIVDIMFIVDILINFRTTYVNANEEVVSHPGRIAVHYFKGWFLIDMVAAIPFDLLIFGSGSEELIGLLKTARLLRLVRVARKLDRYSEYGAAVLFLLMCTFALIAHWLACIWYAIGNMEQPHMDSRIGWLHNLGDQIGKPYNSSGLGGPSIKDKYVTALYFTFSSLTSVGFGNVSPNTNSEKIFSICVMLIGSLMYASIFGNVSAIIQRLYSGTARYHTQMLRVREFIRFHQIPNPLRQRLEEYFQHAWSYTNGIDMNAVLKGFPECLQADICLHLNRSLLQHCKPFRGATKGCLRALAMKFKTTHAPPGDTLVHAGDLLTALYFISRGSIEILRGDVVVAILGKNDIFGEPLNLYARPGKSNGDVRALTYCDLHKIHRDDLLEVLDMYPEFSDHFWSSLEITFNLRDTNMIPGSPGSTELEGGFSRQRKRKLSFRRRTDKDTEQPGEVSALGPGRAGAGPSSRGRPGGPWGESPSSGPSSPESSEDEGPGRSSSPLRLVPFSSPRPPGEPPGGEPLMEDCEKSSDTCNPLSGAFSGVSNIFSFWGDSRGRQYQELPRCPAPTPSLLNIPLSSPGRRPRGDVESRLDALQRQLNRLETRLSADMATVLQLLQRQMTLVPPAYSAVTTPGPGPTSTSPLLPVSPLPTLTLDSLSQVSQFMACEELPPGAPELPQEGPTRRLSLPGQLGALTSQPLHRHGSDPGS

[2] = target: T7, P-glycoprotein (human MDR1) (Homo sapiens, UniProt P08183); assay: MDCKII-hMDR1 monolayer permeability and P-gp efflux; type: in vitro ADME; settings: dog
T7 construct: expressed in transfected cells; host or cells: MDCKII (canine kidney) cells, provided by P. Borst
T7 sequence (P08183 whole entry): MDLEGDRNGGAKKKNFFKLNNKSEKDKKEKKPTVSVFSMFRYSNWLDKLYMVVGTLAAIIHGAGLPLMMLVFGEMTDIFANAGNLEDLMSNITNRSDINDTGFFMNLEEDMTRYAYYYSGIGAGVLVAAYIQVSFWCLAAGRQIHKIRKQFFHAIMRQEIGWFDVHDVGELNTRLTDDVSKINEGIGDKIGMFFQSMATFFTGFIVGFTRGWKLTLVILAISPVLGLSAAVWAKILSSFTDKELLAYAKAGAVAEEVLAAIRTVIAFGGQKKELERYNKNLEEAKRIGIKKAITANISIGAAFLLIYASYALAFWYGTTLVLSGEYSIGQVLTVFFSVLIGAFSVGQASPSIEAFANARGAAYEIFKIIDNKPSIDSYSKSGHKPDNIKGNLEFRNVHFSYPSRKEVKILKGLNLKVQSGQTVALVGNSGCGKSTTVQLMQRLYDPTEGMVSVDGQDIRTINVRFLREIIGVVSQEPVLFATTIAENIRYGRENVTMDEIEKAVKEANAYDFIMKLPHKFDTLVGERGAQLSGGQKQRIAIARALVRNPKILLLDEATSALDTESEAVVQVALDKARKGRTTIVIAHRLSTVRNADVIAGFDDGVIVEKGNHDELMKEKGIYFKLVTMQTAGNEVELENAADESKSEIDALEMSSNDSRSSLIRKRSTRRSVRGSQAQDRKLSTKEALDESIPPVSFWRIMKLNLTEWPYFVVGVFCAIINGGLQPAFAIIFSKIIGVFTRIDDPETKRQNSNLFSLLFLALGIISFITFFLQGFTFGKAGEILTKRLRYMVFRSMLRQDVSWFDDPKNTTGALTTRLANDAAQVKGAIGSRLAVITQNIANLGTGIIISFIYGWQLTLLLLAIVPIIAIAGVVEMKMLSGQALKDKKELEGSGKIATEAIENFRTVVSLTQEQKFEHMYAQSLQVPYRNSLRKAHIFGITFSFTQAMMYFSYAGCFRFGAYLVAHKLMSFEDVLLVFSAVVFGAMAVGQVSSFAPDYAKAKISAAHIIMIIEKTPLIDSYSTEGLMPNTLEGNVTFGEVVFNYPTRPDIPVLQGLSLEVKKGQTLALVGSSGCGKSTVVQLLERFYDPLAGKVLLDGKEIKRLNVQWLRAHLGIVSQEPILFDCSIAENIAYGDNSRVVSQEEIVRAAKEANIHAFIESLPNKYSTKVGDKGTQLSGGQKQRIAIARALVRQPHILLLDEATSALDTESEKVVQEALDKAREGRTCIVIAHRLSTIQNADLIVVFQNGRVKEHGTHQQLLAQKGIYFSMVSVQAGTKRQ
Method: (§2) T. b. brucei was cultured in complete HMI-9 medium,[20] which contains 10% fetal bovine serum (FBS) (Invitrogen, Carlsbad, CA), 10% Serum Plus medium (SAFC Biosciences, Lenexa, KS), and 100 units/mL penicillin and 0.1 mg/mL streptomycin. The trypanosomes were propagated in T-25 vented cap flasks (Corning Inc., Lowell, MA) at 37°C and 5% CO2 with humidity. To ensure log growth phase, trypanosomes were sub-cultured at appropriate dilutions (typically 1∶100) every 2–3 days in fresh HMI-9 medium. T. b. rhodesiense parasites were grown in MEM medium with Earle's salts supplemented with 15% horse serum. For T. b. gambiense, the MEM medium was supplemented with 5% heat-inactivated fetal calf serum (FCS) and 15% human serum.[21] L929 mouse fibroblast cells (ATCC CCL1, American Type Culture Collection, Rockville, MD) were used to determine parasite versus mammalian cell selectivity. Cells were cultured in Dulbecco's Modified Eagle Medium (DMEM), supplemented with 10% FBS, L-glutamine and 100 units/mL penicillin and 0.1 mg/mL streptomycin. MDCKII-hMDR1 cells were generously provided by P. Borst at the Netherlands Kancer Institute. Cells were cultured in DMEM with Glutamax, 10% (v/v) FBS, and 100 units/mL penicillin and 0.1 mg/mL streptomycin. Cell monolayers were fed with cell culture media 24 h after seeding and used for permeability studies 3 days later.
(§3) The propensity of the compound to cross the blood-brain barrier was examined using an in vitro MDCKII-hMDR1 transwell assay.[24] MDCKII-hMDR1 cells were seeded at density of 3×10^5 cells per well onto microporous polycarbonate membranes in 12 well Costar Transwell plates (Corning Inc., Lowell, MA). The cells were used for permeability studies 3 days later. Trans-epithelial resistance (TEER) was measured for each insert to ensure the integrity of the monolayer (acceptable TEER >50 Ωcm^2).
(§4) The permeability and propensity for P-gp-mediated efflux was evaluated by adding each compound at a concentration of 3 µM, in the presence or absence of 2 µM GF120918, to the apical compartment. Competency of the P-gp efflux transporter was confirmed by assay of propranolol (non-substrate) and amprenavir (substrate). Cell monolayers were incubated in triplicate with shaking (160 rpm) at 37°C in a 5% CO2-enriched humidified atmosphere for 1 h. Samples were removed from the apical and basolateral compartments after incubation and assayed for test compound concentrations by LC-MS/MS. Values for mass balance, PappA→B, PappA→B+GF918, and absorption quotient (AQ) were calculated for each compound.[25], [26], [27] Acceptance criterion for mass balance was 70–120%.

[3] = target: T8, MDCKII-hMDR1 cells (P-glycoprotein) (Homo sapiens, UniProt P08183); assay: as above; type: in vitro ADME
T8 construct: expressed in transfected cells; host or cells: MDCKII (canine kidney) cells, provided by P. Borst
T8 sequence (P08183 whole entry): as above
Method: as §2, §3, §4

For `CC1(C)OB(O)c2cc(NC(=O)c3ccc(F)cc3C(F)(F)F)ccc21` [SCYX-7158], the cure rate (T. b. brucei TREU 667; 12.5 mg/kg once daily oral over 7 days starting day 21 after infection) was 80%, the cure rate (T. b. brucei TREU 667; 25 mg/kg once daily oral, 7 doses, starting day 21 after infection) was 100% and the “lowest effective oral dose in murine stage 2 study” value (T. b. brucei TREU 667; QD×7 days, oral) was 12.5 mg/kg. For the same molecule, the “binding to or inhibition of off-target panel” value (>100 biochemical targets) was “did not exhibit any significant binding to, or inhibition of”, the IC50 (CYP2C9) was 23.5 µM and the IC50 (CYP2C19) was 23.1 µM. It also gave an IC50 (CYP2D6) of 21.1 µM, an IC50 (CYP1A2) of over 100 µM and an IC50 (CYP3A4) of 47.4 µM. It also gave a mean fractional block ([1]; 30 µM) of 0.108±0.037, a mean fractional block ([1]; 100 µM) of 0.198±0.018 and an IC50 ([1]; indicated by patch clamp fractional block) of over 100 µM. For the same molecule, the Papp A→B at 1 h, 3 µM ([2]; MDCK-MDR1, with GF120918 2 µM, in presence of P-gp inhibitor GF120918 (2 µM), read-out: Papp A→B + GF120918) was 85.3 ×10⁻⁶ cm/s, the Papp A→B at 1 h, 3 µM ([2]; MDCK-MDR1, apical to basolateral, 3 µM (1.1 µg/mL), 1 h, read-out: Papp A→B) was 77.6 ×10⁻⁶ cm/s and the “AQ (absorption quotient)” value ([3]; calculated from Papp with and without GF120918) was 0.09. For the same molecule, the P-gp substrate status ([3]; from AQ) was “not a P-gp substrate”.
